# In US20040062782A1, “Addition of insect repellent during rinse cycle” (priority 2002, published 2004):
# System: insects
# Experiment: Insect repellence of articles treated with DEET during the rinse cycle of an automated washing machine
# Assay type: in vivo
# Experimental: The present invention centers around adding a insect repellent to articles during the rinse cycle of a washing machine. During the rinse cycle, detergent and stains are dissolved into the fluid medium, while the insect repellent is added to the fluid medium and disseminates throughout the fluid medium and articles within the washing machine and is retained by the contents of the washing machine as the fluid medium is partially removed. As the damp articles are removed from the washing machine and subsequently dried, the insect repellent is retained therein as the fluid medium is removed. While there are various application rates of DEET that produce the desired effect of repelling insects from articles under different conditions, it has been found sufficient to provide along the order of 1 fluid ounce of DEET to the articles during the rinse cycle of an automated washing machine. […] It is also within the scope and spirit of the present invention to add […] more than 1 fluid ounce to increase the concentration of DEET retained by the articles after the rinse cycle is complete. For example, if the articles may be exposed to elevated temperatures for an extended period, say 2 hours or more, the amount of DEET added during the rinse cycle may be higher to compensate for the higher amount of DEET emanating from the articles at the elevated temperatures. […] However, higher or lower ratios may be utilized depending upon the conditions of intended use of the articles or the intended duration of insect repellence. As discussed above, the ratio may be […] along the lines of 1:1 to 2:1 to impart insect repellence in accordance with increased exposure to elevated temperatures, and/or to provide insect repellence during a longer duration.
smiles,measurement,setting,value
"CCN(CC)C(=O)c1cccc(C)c1 [DEET, N,N-diethyl-m-toluamide]",insect repellence (duration) while the article is being used,"on the order of 1 fluid ounce of DEET added to the articles during the rinse cycle, article in use",approximately 24 hours
same,extended insect repellence (duration) for stored articles,"on the order of 1 fluid ounce of DEET added to the articles during the rinse cycle, stored articles",approximately one month
same,repelling insects from the articles,"ratio of 4:1 to 5:1 (in fluid ounces) of fabric softener and/or other components to DEET, added to the rinse cycle",provides the desired effect of repelling insects from the articles
